Legend:
[1] = molecular target: Epidermal growth factor receptor [T790M,L858R] (Homo sapiens, UniProt P00533, L858R/T790M); assay: Kinase Inhibition Assay
Description: (§1) Then, it was diluted in DMSO with a 3-fold series gradient dilution for 10 times. […] The corresponding substrate and ATP were added and reacted at room temperature for 20 minutes (in which a negative and a positive control were set: the negative control is blank and the positive control is erlotinib). […] The inhibitions of the enzyme activity by the compounds at different concentrations were then fitted using Graphpad 5.0 software according to the four-parameter equation, and the IC50 values were calculated.

[2] = molecular target: Epidermal growth factor receptor (Homo sapiens, UniProt P00533); assay: Kinase Inhibition Assay
Sequence of Epidermal growth factor receptor (P00533 whole entry): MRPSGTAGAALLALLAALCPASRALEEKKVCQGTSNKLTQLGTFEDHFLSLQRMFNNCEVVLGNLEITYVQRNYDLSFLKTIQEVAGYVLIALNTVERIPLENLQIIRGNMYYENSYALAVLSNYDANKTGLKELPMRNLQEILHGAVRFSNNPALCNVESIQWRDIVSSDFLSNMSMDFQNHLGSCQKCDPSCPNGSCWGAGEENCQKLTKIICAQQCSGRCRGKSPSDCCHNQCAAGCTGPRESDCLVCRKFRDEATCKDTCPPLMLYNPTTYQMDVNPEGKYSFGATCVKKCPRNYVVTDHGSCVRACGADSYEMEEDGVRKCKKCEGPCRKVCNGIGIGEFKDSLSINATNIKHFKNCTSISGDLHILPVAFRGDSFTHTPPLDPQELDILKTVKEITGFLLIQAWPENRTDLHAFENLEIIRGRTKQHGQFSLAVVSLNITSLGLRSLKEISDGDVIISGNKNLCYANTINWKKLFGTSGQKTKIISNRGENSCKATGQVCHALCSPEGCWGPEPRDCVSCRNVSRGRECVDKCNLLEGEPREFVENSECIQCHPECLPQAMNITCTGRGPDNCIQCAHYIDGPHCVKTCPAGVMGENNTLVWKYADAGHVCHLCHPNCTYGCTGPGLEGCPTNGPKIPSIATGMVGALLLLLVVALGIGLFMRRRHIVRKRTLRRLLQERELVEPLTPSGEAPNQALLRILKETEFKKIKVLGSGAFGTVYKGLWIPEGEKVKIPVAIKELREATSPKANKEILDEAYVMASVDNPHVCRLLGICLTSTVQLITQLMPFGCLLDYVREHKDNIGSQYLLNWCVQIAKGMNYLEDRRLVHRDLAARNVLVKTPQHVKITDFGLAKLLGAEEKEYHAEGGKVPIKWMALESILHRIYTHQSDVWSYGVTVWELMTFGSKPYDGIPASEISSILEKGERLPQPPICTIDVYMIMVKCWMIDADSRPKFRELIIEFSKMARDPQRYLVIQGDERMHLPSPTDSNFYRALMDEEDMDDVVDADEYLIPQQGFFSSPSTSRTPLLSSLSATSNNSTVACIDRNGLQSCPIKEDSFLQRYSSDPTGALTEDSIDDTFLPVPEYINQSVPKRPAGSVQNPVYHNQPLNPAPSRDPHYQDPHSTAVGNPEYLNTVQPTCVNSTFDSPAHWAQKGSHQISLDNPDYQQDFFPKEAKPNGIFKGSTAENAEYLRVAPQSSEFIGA
Description: as §1

Sequence of Epidermal growth factor receptor [T790M,L858R] (P00533 25-1210 T790M/L858R limits assumed): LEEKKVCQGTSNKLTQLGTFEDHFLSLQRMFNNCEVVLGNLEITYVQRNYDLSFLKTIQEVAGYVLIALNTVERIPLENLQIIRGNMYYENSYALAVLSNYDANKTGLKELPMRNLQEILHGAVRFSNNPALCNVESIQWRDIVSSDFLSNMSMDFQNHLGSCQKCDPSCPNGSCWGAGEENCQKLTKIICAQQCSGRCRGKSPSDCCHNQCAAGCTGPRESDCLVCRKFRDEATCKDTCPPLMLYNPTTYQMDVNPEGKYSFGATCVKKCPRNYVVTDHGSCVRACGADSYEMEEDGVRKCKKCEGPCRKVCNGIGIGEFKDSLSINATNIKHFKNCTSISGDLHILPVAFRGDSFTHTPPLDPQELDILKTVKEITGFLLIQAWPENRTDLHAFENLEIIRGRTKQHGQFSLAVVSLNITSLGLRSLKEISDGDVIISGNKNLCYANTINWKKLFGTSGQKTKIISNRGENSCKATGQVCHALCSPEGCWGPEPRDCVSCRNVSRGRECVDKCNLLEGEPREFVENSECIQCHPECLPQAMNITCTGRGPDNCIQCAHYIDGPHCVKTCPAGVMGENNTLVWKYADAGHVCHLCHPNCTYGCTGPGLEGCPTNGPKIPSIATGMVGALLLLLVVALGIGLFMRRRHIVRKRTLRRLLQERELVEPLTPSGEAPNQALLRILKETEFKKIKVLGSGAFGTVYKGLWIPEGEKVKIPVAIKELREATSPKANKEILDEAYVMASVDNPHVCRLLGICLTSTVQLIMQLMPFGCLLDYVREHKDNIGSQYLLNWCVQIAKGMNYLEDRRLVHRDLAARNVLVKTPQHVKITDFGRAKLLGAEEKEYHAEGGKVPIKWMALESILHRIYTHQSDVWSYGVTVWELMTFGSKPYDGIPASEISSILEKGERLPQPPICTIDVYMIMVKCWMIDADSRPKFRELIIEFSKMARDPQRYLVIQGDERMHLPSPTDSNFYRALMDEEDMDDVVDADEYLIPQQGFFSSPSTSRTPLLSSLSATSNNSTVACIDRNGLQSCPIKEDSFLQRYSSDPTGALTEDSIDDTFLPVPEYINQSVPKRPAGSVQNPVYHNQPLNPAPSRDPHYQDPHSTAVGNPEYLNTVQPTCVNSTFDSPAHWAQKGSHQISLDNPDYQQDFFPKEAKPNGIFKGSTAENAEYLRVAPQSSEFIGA

SMILES | IC50 [1] [µM] | IC50 [2] [µM]
C=CC(=O)Nc1cc(Nc2nccc(-c3cc(F)c4nc(C)n(C(C)C)c4c3)n2)c(OC)cc1OCCN(C)C [US11111233, Example 12] | < 0.001 | 
C=CC(=O)Nc1cc(Nc2nccc(-c3cc(F)c4nc(C)n(C(C)C)c4c3)n2)c(OC)cc1N1CCOCC1 [US11111233, Example 16] |  | > 0.1

— BindingDB's records for patent US11111233 (Shenzhen Targetrx, 2021)
